Measured values: US20240262842A1, “SMALL MOLECULE INHIBITORS OF KRAS G12C MUTANT” (Merck Sharp & Dohme LLC, priority 2021, published 2024)

Legend:
[1] = test system: MIA PaCa-2 cells; assay: Growth inhibition activity on KRAS-G12C mutant cell line (CellTiter-Glo 3D); assay type: cell-based, human; settings: Homo sapiens, MIA PaCa-2, 72 h, MIA PaCa-2, 3-day culture with compound; Table 3-1
In short: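 IC50 (nM) derived from inhibition of luminescence (CellTiter-Glo 3D) relative to compound-free wells. Cells were seeded in U-bottom plates, grown 1 day, then exposed to compound for 3 days at 37 °C with 0.2% final DMSO.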

[2] = target: T1, interaction between GMPPNP-bound recombinant K-Ras4B G12C mutant protein and cRAF RAS-binding domain (cRAF-RBD) (Homo sapiens, UniProt P01116, G12C); assay: Inhibitory activity on interaction between KRAS G12C and cRAF (Alpha technology); settings: GMPPNP-bound KRAS G12C incubated with compound 25° C. 1 hour; Table 2-1; read-out: IC50
T1 construct: His-tag (N)
In short: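 Alpha signal measured 1.5 h after adding cRAF-RBD (aa 50-132) and detection reagents to GMPPNP-bound KRAS G12C (aa 1-169) pretreated 1 h at 25° C with compound (pH 7.5 buffer). 0% inhibition = DMSO, 100% = GDP-loaded KRAS; IC50 by curve fit.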

T1 sequence (P01116 with tags, fused parts or gaps isoform P01116-2 G12C): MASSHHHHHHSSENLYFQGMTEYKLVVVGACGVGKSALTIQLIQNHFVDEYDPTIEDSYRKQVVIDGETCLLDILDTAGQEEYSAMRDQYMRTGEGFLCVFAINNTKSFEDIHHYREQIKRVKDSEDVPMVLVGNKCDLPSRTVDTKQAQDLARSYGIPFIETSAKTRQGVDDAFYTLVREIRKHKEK

Compound: Cn1cnc2c3c(c(C(F)(F)F)cc21)-c1cccn2c(C(=O)c4cc(F)c(NC(=O)/C=C/CN5CCCC[C@H]5CO)c(F)c4)cc(c12)CCO3 [Example 222, (S,E)-N-(2,6-difluoro-4-(9-methyl-7-(trifluoro-methyl)-13,14-dihydro-9H-imidazo[4″,5″:5′,6′]-benzo[1′,2′:2,3]oxocino-[4,5,6-hi]indolizine-2-carbonyl)phenyl)-4-(2-(hydroxymethyl)piperidin-1-yl)but-2-enamide]
- IC50 [1]: 1940 nM
- IC50 [2]: 75.8 nM

Compound: COCc1nc2c3c(c(C(F)F)cc2n1C)-c1cccn2c(C(=O)c4cc(F)c(NC(=O)/C=C/CNC5(C)COC5)c(F)c4)cc(c12)CCN3C [Example 224, (E)-N-(4-(7-(difluoromethyl)-10-(methoxymethyl)-9,12-dimethyl-9,12,13,14-tetrahydroimidazo[4″,5″:5′,6′]benzo[1′,2′:2,3]azocino[4,5,6-hi]indolizine-2-carbonyl)-2,6-difluorophenyl)-4-((3-methyloxetan-3-yl)amino)but-2-enamide]
- IC50 [1]: 17.8 nM
- IC50 [2]: 28.2 nM

Compound: COc1cc2c(nc(C)n2C)c2c1-c1cccn3c(C(=O)c4cc(F)c(NC(=O)/C=C/CNC5(C)CC5)c(F)c4)cc(c13)CCS2 [Example 225, (E)-N-(2,6-difluoro-4-(7-methoxy-9,10-dimethyl-13,14-dihydro-9H-imidazo[4″,5″:5′,6′]benzo-[1′,2′:2,3]thiocino[4,5,6-hi]indolizine-2-carbonyl)-phenyl)-4-((1-methyl-cyclopropyl)amino)but-2-enamide]
- IC50 [1]: 7.18 nM
- IC50 [2]: 10.1 nM

Compound: CN1CCc2cc(C(=O)c3cc(F)c(NC(=O)/C=C/CN4CCCC4)c(F)c3)n3cccc(c23)-c2c(C(F)(F)F)cc3c(ncn3C)c21 [Example 226, (E)-N-(4-(9,12-dimethyl-7-(trifluoromethyl)-9,12,13,14-tetrahydro-imidazo[4″,5″:5′,6′]benzo-[1′,2′:2,3]azocino[4,5,6-hi]indolizine-2-carbonyl)-2,6-difluorophenyl)-4-(pyrrolidin-1-yl)but-2-enamide]
- IC50 [1]: 13.5 nM
- IC50 [2]: 63.3 nM

Compound: CN1CCc2cc(C(=O)c3cc(F)c(NC(=O)/C=C/CN4CCC[C@H]4CO)c(F)c3)n3cccc(c23)-c2c(C(F)(F)F)cc3c(ncn3C)c21 [Example 227, (S,E)-N-(4-(9,12-dimeth-yl-7-(trifluoromethyl)-9,12,13,14-tetrahydro-imidazo[4″,5″:5′,6′]benzo-[1′,2′:2,3]azocino[4,5,6-hi]indolizine-2-carbonyl)-2,6-difluorophenyl)-4-(2-(hydroxymethyl)pyrrol-idin-1-yl)but-2-enamide]
- IC50 [1]: 10.2 nM
- IC50 [2]: 34 nM

Compound: Cn1cnc2c3c(c(C(F)(F)F)cc21)-c1cccn2c(C(=O)c4cc(F)c(NC(=O)/C=C/CN5CC6COC(C6)C5)c(F)c4)cc(c12)CCO3 (stereo not shown) [Example 228, (E)-4-(6-oxa-3-azabicyclo-[3.2.1]octan-3-yl)-N-(2,6-difluoro-4-(9-methyl-7-(trifluoromethyl)-13,14-dihydro-9H-imidazo-[4″,5″:5′,6′]benzo[1′,2′: 2,3]oxocino[4,5,6-hi]-indolizine-2-carbonyl)-phenyl)but-2-enamide]
- IC50 [1]: 35.8 nM
- IC50 [2]: 32.5 nM

Compound: Cn1cnc2c3c(c(C(F)(F)F)cc21)-c1cccn2c(C(=O)c4cc(F)c(NC(=O)/C=C/CN5CC6CC5CCO6)c(F)c4)cc(c12)CCO3 (stereo not shown) [Example 229, (E)-4-(2-oxa-6-azabicyclo-[3.2.1]octan-6-yl)-N-(2,6-difluoro-4-(9-methyl-7-(trifluoromethyl)-13,14-dihydro-9H-imidazo-[4″,5″:5′,6′]benzo[1′,2′: 2,3]oxocino[4,5,6-hi]-indolizine-2-carbonyl)-phenyl)but-2-enamide]
- IC50 [1]: 11.3 nM
- IC50 [2]: 12.7 nM

Compound: Cn1cnc2c3c(c(C(F)(F)F)cc21)-c1cccn2c(C(=O)c4cc(F)c(NC(=O)/C=C/CN5CC6COCC5C6)c(F)c4)cc(c12)CCO3 (stereo not shown) [Example 230, (E)-4-(3-oxa-6-azabicyclo-[3.2.1]octan-6-yl)-N-(2,6-difluoro-4-(9-methyl-7-(trifluoromethyl)-13,14-dihydro-9H-imidazo-[4″,5″:5′,6′]benzo[1′,2′: 2,3]oxocino[4,5,6-hi]-indolizine-2-carbonyl)-phenyl)but-2-enamide]
- IC50 [1]: 14.4 nM
- IC50 [2]: 20.1 nM

Compound: CC1(NC/C=C/C(=O)Nc2c(F)cc(C(=O)c3cc4c5c(cccn35)-c3c(cc(N5CCOC5=O)cc3C(F)(F)F)OCC4)cc2F)CC1 [Example 232, (E)-N-(2,6-difluoro-4-(7-(2-oxooxazolidin-3-yl)-9-(trifluoromethyl)-3.4-dihydrobenzo[2,3]oxo-cino-[4,5,6-hi]indolizine-1-carbonyl)phenyl)-4-((1-methylcyclopropyl)amino)-but-2-enamide]
- IC50 [1]: 18 nM
- IC50 [2]: 49.7 nM

Compound: CC1(NC/C=C/C(=O)Nc2c(F)cc(C(=O)c3cc4c5c(cccn35)-c3c(cc(N5CCNC5=O)cc3C(F)(F)F)OCC4)cc2F)CC1 [Example 233, (E)-N-(2,6-difluoro-4-(7-(2-oxoimidazolidin-1-yl)-9-(trifluoromethyl)-3,4-dihydrobenzo[2,3]oxo-cino[4,5,6-hi]indolizine-1-carbonyl)phenyl)-4-((1-methylcyclopropyl)-amino)but-2-enamide]
- IC50 [1]: 14 nM
- IC50 [2]: 52.6 nM

Compound: Cn1cnc2c3c(c(C(F)(F)F)cc21)-c1cccn2c(C(=O)c4cc(F)c(NC(=O)/C=C/CN5CC6CCC5C6)c(F)c4)cc(c12)CCO3 (stereo not shown) [Example 234, (E)-4-(2-azabicyclo-[2.2.1]heptan-2-yl)-N-(2,6-difluoro-4-(9-meth-yl-7-(trifluoromethyl)-13,14-dihydro-9H-imidazo-[4″,5″:5′,6′]-benzo[1′,2′:2,3]oxocino-[4,5,6-hi]indolizine-2-carbonyl)phenyl)but-2-enamide]
- IC50 [1]: 7.08 nM
- IC50 [2]: 20.5 nM

Compound: Cn1cnc2c3c(c(C(F)(F)F)cc21)-c1cccn2c(C(=O)c4cc(F)c(NC(=O)/C=C/CN5C6CCCC5CC6)c(F)c4)cc(c12)CCO3 [Example 235, (E)-4-((1R,5S)-8-azabicyclo[3.2.1]octan-8-yl)-N-(2,6-difluoro-4-(9-methyl-7-(trifluoro-methyl)-13,14-dihydro-9H-imidazo[4″,5″:5′,6′]-benzo[1′,2′:2,3]oxocino-[4,5,6-hi]indolizine-2-carbonyl)phenyl)but-2-enamide]
- IC50 [1]: 17 nM
- IC50 [2]: 21.9 nM

Compound: Cn1cnc2c3c(c(C(F)(F)F)cc21)-c1cccn2c(C(=O)c4cc(F)c(NC(=O)/C=C/CN5C6CCC5CC6)c(F)c4)cc(c12)CCO3 [Example 236, (E)-4-(7-azabicyclo[2.2.1]-heptan-7-yl)-N-(2,6-difluoro-4-(9-methyl-7-(trifluoromethyl)-13,14-dihydro-9H-imidazo-[4″,5″:5′,6′]benzo[1′,2′: 2,3]oxocino[4,5,6-hi]-indolizine-2-carbonyl)-phenyl)but-2-enamide]
- IC50 [1]: 4.03 nM
- IC50 [2]: 16.5 nM

Compound: COCCn1c(C)nc2c3c(c(OC)cc21)-c1cccn2c(C(=O)c4cc(F)c(NC(=O)C=CCNC5(C)CC5)c(F)c4)cc(c12)CCS3 [Example 240, (E)-N-(2,6-difluoro-4-(7-methoxy-9-(2-methoxyethyl)-10-methyl-13,14-dihydro-9H-imidazo[4″,5″:5′,6′]benzo[1′,2′:2,3]thiocino[4,5,6-hi]indolizine-2-carbonyl)phenyl)-4-((1-methylcyclopropyl)amino)but-2-enamide]
- IC50 [1]: 14.5 nM
- IC50 [2]: 8.93 nM
